Active and inactive are the calls of the source. The rule behind the calls is not given here.
Legend:
[1] = tested on: RAW264.7; assay: Inhibition of LPS-induced NO production in mouse RAW264.7 cells at 5 uM preincubated with compound for 2 hrs followed by LPS stimulation for 24 hrs by Griess reagent based assay relative to control; assay type: functional; conditions: time 26 hrs
[2] = tested on: RAW264.7; assay: Cytotoxicity against mouse RAW264.7 cells assessed as effect on cell viability at 5 uM incubated for 24 hrs by alamar blue reagent based fluorescence assay; assay type: toxicity; conditions: raw264.7, 24 h
[3] = tested on: RAW264.7; assay: Inhibition of LPS-induced NO production in mouse RAW264.7 cells preincubated with compound for 2 hrs followed by LPS stimulation for 24 hrs by Griess reagent based assay; assay type: functional, cell-based
[4] = tested on: RAW264.7; assay: Antiinflammatory activity in LPS-induced mouse RAW264.7 cells assessed as enhancement of JAK2 phosphorylation at […] pretreated with compound for 2 hrs followed by LPS-stimulation and measured after 30 mins by Western blot analysis; assay type: functional, cell-based; conditions: time 2.5 hrs
[5] = tested on: RAW264.7; assay: Antiinflammatory activity in LPS-induced mouse RAW264.7 cells assessed as enhancement of STAT3 phosphorylation at […] pretreated with compound for 2 hrs followed by LPS-stimulation and measured after 30 mins by Western blot analysis; assay type: functional, cell-based; conditions: time 2.5 hrs
[6] = tested on: RAW264.7; assay: Antiinflammatory activity in LPS-induced mouse RAW264.7 cells assessed as enhancement of STAT3 phosphorylation at 20 uM pretreated with compound for 2 hrs followed by LPS-stimulation and measured after 30 mins by Western blot analysis; assay type: functional, cell-based; conditions: time 2.5 hrs
[7] = tested on: RAW264.7; assay: Antiinflammatory activity in LPS-induced mouse RAW264.7 cells assessed as enhancement of JAK2 phosphorylation at 20 uM pretreated with compound for 2 hrs followed by LPS-stimulation and measured after 30 mins by Western blot analysis; assay type: functional, cell-based; conditions: time 2.5 hrs

| SMILES | inhibition at 5 µM [1] [%] | Activity [2] | further results |
| --- | --- | --- | --- |
| O[C@@H](CC/C=C/c1ccccc1)CCc1ccccc1 | -18.3 | Non-Toxic |  |
| Oc1ccc(CC[C@@H](O)CCCCc2ccccc2)cc1O | 54 | Non-Toxic |  |
| COc1ccc(CCC(/C=C/C=C/c2ccccc2)OC)cc1O (stereo not drawn) | 71.1 | Non-Toxic |  |
| Oc1ccc(CC[C@@H](O)CC/C=C/c2ccccc2)cc1 | 20.4 | Non-Toxic |  |
| CC(=O)Oc1ccc(CC[C@@H](O)CC/C=C/c2ccccc2)cc1OC(C)=O | 121 | Non-Toxic | IC50 [3]: 1610 nM |
| CC(=O)Oc1ccc(CCC(=O)CCCCc2ccccc2)cc1OC(C)=O | 128 | Non-Toxic | IC50 [3]: 370 nM |
| Oc1ccc(CCC(O)/C=C/C=C/c2ccccc2)cc1O (single isomer, unassigned) | 12.3 | Non-Toxic |  |
| OC(CCc1ccccc1)CC(O)CCc1ccccc1 (stereo not drawn) | 23.5 | Non-Toxic |  |
| O[C@@H](CC/C=C/c1ccccc1)CCc1ccc(OCc2ccccc2)cc1 | -15.7 | Non-Toxic |  |
| O[C@@H](CCCCc1ccccc1)CCc1ccccc1 | 40.1 | Non-Toxic |  |
| COc1ccc(OC)c(CCCCC(O)CCc2ccc(OC)c(O)c2)c1 (stereo not drawn) | 36.2 | Non-Toxic |  |
| C(=C\C=C\c1ccccc1)/C=C/Cc1ccccc1 | 124 | Non-Toxic | IC50 [3]: 840 nM |
| Oc1ccc(CCC(O)CC(O)CCc2ccccc2)cc1 (stereo not drawn) | 20.5 | Non-Toxic |  |
| COc1ccc(CCCCC(O)CCc2cccc(O)c2)c(OC)c1 (stereo not drawn) | -14.5 | Non-Toxic |  |
| COc1cc(CCC(O)/C=C/C=C/c2ccccc2)ccc1O (stereo not drawn) | 35.3 | Non-Toxic |  |
| CC(=O)Oc1ccc(CCC(=O)CC/C=C/c2ccccc2)cc1 | 22.2 | Non-Toxic |  |
| Oc1ccc(CCCC[C@H](O)CCc2ccccc2)cc1 | 23.9 | Non-Toxic |  |
| COc1ccc(CCCCC(O)CCc2ccc(OC)c(O)c2)c(OC)c1 (stereo not drawn) | -2.9 | Non-Toxic |  |
| O=C(/C=C/C=C/c1ccccc1)CCc1ccc(O)cc1 | 60.4 | Non-Toxic |  |
| O=C(/C=C/C=C/c1ccccc1)CCc1ccccc1 | 52.8 | Non-Toxic |  |
| COc1cccc(/C=C/C(=O)/C=C/C=C/c2cccc(O)c2)c1 | 84.3 | Non-Toxic | IC50 [3]: 810 nM |
| O[C@@H](/C=C/C=C/c1ccccc1)CCc1ccccc1 | 4.61 | Non-Toxic |  |
| O=C(/C=C/C=C/c1cccc(O)c1)/C=C/c1cccc(O)c1 | 95.9 | Non-Toxic | IC50 [3]: 580 nM |
| O=C(CCc1ccccc1)C[C@@H](O)CCc1ccccc1 | 14.7 | Non-Toxic |  |
| COc1cccc(/C=C/C=C/C(=O)/C=C/c2cccc(O)c2)c1 | 92.3 | Non-Toxic | IC50 [3]: 410 nM |

| SMILES | inhibition at 5 µM [1] [%] | Activity [2] | further results |
| --- | --- | --- | --- |
| COc1ccc(CCC(=O)CCCCc2cccc(O)c2)cc1O | 8.39 | Non-Toxic |  |
| COc1ccc(CCC(=O)CCCCc2cccc(O)c2)cc1 | 21.4 | Non-Toxic |  |
| O/N=C(/CC/C=C/c1ccccc1)CCc1ccccc1 | 39.4 | Non-Toxic |  |
| COc1cc(/C=C/C(=O)CC(=O)/C=C/c2ccc(O)c(OC)c2)ccc1O [CURCUMIN] | 74 | Non-Toxic | IC50 [3]: 1890 nM |
| COc1ccc(CCCCC(=O)CCc2ccc(OC)c(O)c2)c(OC)c1 | 16.6 | Non-Toxic |  |
| CC(=O)Oc1ccc(CC[C@@H](O)CCCCc2ccccc2)cc1OC(C)=O | 99.2 | Non-Toxic | IC50 [3]: 330 nM |
| COc1ccc(OC)c(/C=C/C=C/C(=O)/C=C/c2ccc(OC)c(O)c2)c1 | 101 | Non-Toxic | IC50 [3]: 610 nM |
| COc1ccc(/C=C2\CCCN=C2c2cccnc2)c(OC)c1 |  |  | Activity [4]: Active; Activity [5]: Active; Activity [6]: Active; Activity [7]: Active |
| COc1ccc(OC)c(CCCCC(=O)CCc2ccc(OC)c(O)c2)c1 | 39.4 | Non-Toxic |  |
| COc1ccc(/C=C/C=C/C(=O)/C=C/c2cccc(O)c2)c(OC)c1 | 82.3 | Non-Toxic | IC50 [3]: 970 nM |
| O=C(CCCCc1ccccc1)CCc1ccc(O)cc1 | 68.3 | Non-Toxic |  |
| O=C(CC/C=C/c1ccccc1)CCc1ccc(O)cc1 | 46.1 | Non-Toxic |  |
| COc1cc(CCC(=O)CC/C=C/c2ccccc2)ccc1O | 52.2 | Non-Toxic |  |
| O=C(CC/C=C/c1ccccc1)CCc1ccccc1 | -8.52 | Non-Toxic |  |
| Oc1ccc(CC[C@@H](O)CC/C=C/c2ccccc2)cc1O | 34.7 | Non-Toxic |  |
| O=C(CCc1ccccc1)C[C@@H](O)/C=C/c1ccccc1 | 11 | Non-Toxic |  |
| COc1ccc(CCCCC(=O)CCc2cccc(O)c2)c(OC)c1 | 2.74 | Non-Toxic |  |
| COc1ccc(/C=C/C(=O)/C=C/C=C/c2cccc(O)c2)cc1 | 85.8 | Non-Toxic | IC50 [3]: 1230 nM |
| CC(=O)Oc1ccc(CCC(=O)CCCCc2ccccc2)cc1 | 45.2 | Non-Toxic |  |
| COc1cc(CC[C@@H](O)CC/C=C/c2ccccc2)ccc1O | 47.9 | Non-Toxic |  |
| COC(/C=C/C=C/c1ccccc1)CCc1ccc(O)cc1 (stereo not drawn) | 66.3 | Non-Toxic |  |
| O=C(CCCCc1ccccc1)CCc1ccccc1 | 38.9 | Non-Toxic |  |
| CC(=O)OCC[N+](C)(C)C |  |  | Activity [4]: Active; Activity [5]: Active; Activity [6]: Active; Activity [7]: Active |
| COc1ccc(CCC(=O)CC/C=C/c2ccccc2)cc1 | -17.2 | Non-Toxic |  |
